# Test results published in patent publication US10899758B2, “Inhibitors of the menin-MLL interaction” (Vitae Pharmaceuticals, LLC, priority 2016, dated 2021).
# Read-outs that look alike come from different tables or passages of the source.
# Key:
# [1] = biological target: T1, menin/MLL binding (biotinylated wild-type or mutated menin and MLL-AF9 fusion protein) (Homo sapiens, UniProt O00255); test: Assay 1 (Binding Assay): AlphaLISA menin/MLL binding; conditions: 5 nM biotinylated menin, MLL-AF9-FLAG lysate
# T1 construct: biotinylated (1) wild-type menin or (2) mutated menin (described in Nature (2012) Vol. 482, pp. 542-548); fused on or other part: Biotin attached chemically (Sulfo-NHS-Biotin); no fused second protein is printed for menin
# T1 sequence (O00255 1-459 limits assumed): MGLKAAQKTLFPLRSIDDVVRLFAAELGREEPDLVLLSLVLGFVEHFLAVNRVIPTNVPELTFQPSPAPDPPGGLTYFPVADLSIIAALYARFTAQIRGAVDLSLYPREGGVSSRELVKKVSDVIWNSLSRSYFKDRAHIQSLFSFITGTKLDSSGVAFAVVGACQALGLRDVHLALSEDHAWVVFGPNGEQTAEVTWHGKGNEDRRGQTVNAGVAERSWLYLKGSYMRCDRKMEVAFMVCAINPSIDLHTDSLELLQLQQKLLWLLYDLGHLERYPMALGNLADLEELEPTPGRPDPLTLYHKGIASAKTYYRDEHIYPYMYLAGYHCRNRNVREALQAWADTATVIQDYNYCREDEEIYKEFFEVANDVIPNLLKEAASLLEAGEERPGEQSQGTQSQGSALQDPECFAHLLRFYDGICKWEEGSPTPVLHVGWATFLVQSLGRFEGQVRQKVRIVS
# Summary of the method: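 Biotinylated E. coli-expressed menin (wild-type or mutant), 5 nM, incubated 30 min RT with compound and HEK293 lysate of MLL1-1,396–AF9-FLAG in pH 7.4 Tris buffer, 5% DMSO, 1 mM DTT. Anti-FLAG acceptor and streptavidin donor beads added, 60 min RT, AlphaLISA signal read. IC50 from four-parameter fit of % inhibition.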
# [2] = test system: human acute monocytic leukemia cell line MV-4-11; test: Assay 2 (Cell Proliferation Assay), ATP quantitation (CellTiter-Glo); format: cell-based; conditions: MV-4-11 cells, read-out: Assay 2 (EC50, inhibition of cell proliferation)
# Protocol: Potencies of inhibitor compounds against cell proliferation was assessed against the human acute monocytic leukemia cell line MV-4-11 (ATCC® CRL-9591™) based on ATP quantitation. MV-4-11 cells or toxicity control HL-60 cells (ATCC® CCL-240™) were incubated in 96-well tissue culture plates (1.67×10^4 cells in 200 μL culture media containing 10% FBS per well) with or without test compound for 72 h at 37° C., 5% CO2. After incubation, each well was mixed by pipetting and 95 μL from each well was transferred to a well in 96-well black OptiPlate® plates (PerkinElmer). An equal volume of CellTiter-Glo® Luminescent Cell Viability Assay reagent (Promega) was added to each well, followed by mixing for 5 min on an orbital plate shaker. Luminescence was measured on a Wallac EnVision 2104 Multilabel Reader (PerkinElmer) to quantitate ATP. Percent inhibition of cell proliferation by test compounds was calculated based on uninhibited cell growth (DMSO) versus cells treated with a potent menin inhibitor at a concentration yielding at least 100×LD50.
Structure (SMILES),IC50 [1] [nM],"EC50 ([2]; Homo sapiens, MV4-11, 72 h) [nM]",EC50 ([2]; 72 h) [nM]
"CC(C)N(C(=O)c1cc(F)ccc1-n1cc(C2CCN(Cc3ccccc3)CC2)c2ccncc21)C(C)C [Example 33, 2-(3-(1-benzylpiperidin-4-yl)-1H-pyrrolo[2,3-c]pyridin-1-yl)-5-fluoro-N,N-diisopropylbenzamide]",< 100,< 100,
"CS(=O)(=O)N[C@H]1CC[C@H](CCN2CCC(c3cn(-c4ccc(F)cc4OCC4CC4)c4cnccc34)CC2)CC1 [Example 34, N-(trans-4-(2-(4-(1-(2-(cyclopropylmethoxy)-4-fluorophenyl)-1H-pyrrolo[2,3-c]pyridin-3-yl)piperidin-1-yl)ethyl)cyclohexyl)methanesulfonamide]",< 100,100 to 1000,
"CC(C)N(CCO)C(=O)c1cc(F)ccc1-n1cc(C2CCN(Cc3ccccc3)CC2)c2ccncc21 [Example 36, 2-(3-(1-benzylpiperidin-4-yl)-1H-pyrrolo[2,3-c]pyridin-1-yl)-5-fluoro-N-(2-hydroxyethyl)-N-isopropylbenzamide]",< 100,< 100,
"Cc1c(CN2CCC(c3cn(-c4ccc(F)cc4)c4cnccc34)CC2)ccc2[nH]c(C#N)cc12 [Example 37, 5-((4-(1-(4-fluorophenyl)-1H-pyrrolo[2,3-c]pyridin-3-yl)piperidin-1-yl)methyl)-4-methyl-1H-indole-2-carbonitrile]",< 100,100 to 1000,
"Cc1c(CN2CCC(c3cn(-c4ccc(F)cc4CC(C)C)c4cnccc34)CC2)ccc2[nH]c(C#N)cc12 [Example 42, 5-((4-(1-(4-fluoro-2-isobutylphenyl)-1H-pyrrolo[2,3-c]pyridin-3-yl)piperidin-1-yl)methyl)-4-methyl-1H-indole-2-carbonitrile]",< 100,100 to 1000,
"CC(C)N(C)C(=O)c1cc(F)ccc1-n1cc(C2CCCN(Cc3ccc4[nH]c(=O)[nH]c4c3)C2)c2ccncc21 (centres unmarked) [Example 43, 5-fluoro-N-isopropyl-N-methyl-2-(3-(1-((2-oxo-2,3-dihydro-1H-benzo[d]imidazol-5-yl)methyl)piperidin-3-yl)-1H-pyrrolo[2,3-c]pyridin-1-yl)benzamide]",< 100,< 100,
"CC(C)N(C)C(=O)c1cc(F)ccc1-n1cc(C2CCCN(Cc3ccc4c(c3)[nH]c(=O)n4CCO)C2)c2ccncc21 (centres unmarked) [Example 44, 5-fluoro-2-(3-(1-((1-(2-hydroxyethyl)-2-oxo-2,3-dihydro-1H-benzo[d]imidazol-5-yl)methyl)piperidin-3-yl)-1H-pyrrolo[2,3-c]pyridin-1-yl)-N-isopropyl-N-methylbenzamide]",< 100,,< 100
"CC(C)N(C)C(=O)c1cc(F)ccc1-n1cc(C2CCCN(Cc3ccccc3)C2)c2ccncc21 (centres unmarked) [Example 45, 2-(3-(1-benzylpiperidin-3-yl)-1H-pyrrolo[2,3-c]pyridin-1-yl)-5-fluoro-N-isopropyl-N-methylbenzamide]",< 100,100 to 1000,
"CC(C)N(C)C(=O)c1cc(F)ccc1-n1cc(C2CCCN(CC3CCCCC3)C2)c2ccncc21 (centres unmarked) [Example 46, 2-(3-(1-(cyclohexylmethyl)piperidin-3-yl)-1H-pyrrolo[2,3-c]pyridin-1-yl)-5-fluoro-N-isopropyl-N-methylbenzamide]",< 100,100 to 1000,

# Next, values leading:
IC50 [1] [nM],"EC50 ([2]; Homo sapiens, MV4-11, 72 h) [nM]",EC50 ([2]; 72 h) [nM],Structure (SMILES)
< 100,< 100,,"CC(C)N(C)C(=O)c1cc(F)ccc1-n1cc(C2CCN(CC[C@H]3CC[C@H](NS(C)(=O)=O)CC3)CC2)c2ccncc21 [Example 19, 5-fluoro-N-isopropyl-N-methyl-2-(3-(1-(2-(trans-4-(methylsulfonamido)cyclohexyl)ethyl)piperidin-4-yl)-1H-pyrrolo[2,3-c]pyridin-1-yl)benzamide]"
< 100,100 to 1000,,"CC(=O)N[C@H]1CC[C@H](CN2CCC(c3cn(-c4ccc(F)cc4C(=O)N(C)C(C)C)c4cnccc34)CC2)CC1 [Example 20, 2-(3-(1-(((1r,4r)-4-acetamidocyclohexyl)methyl)piperidin-4-yl)-1H-pyrrolo[2,3-c]pyridin-1-yl)-5-fluoro-N-isopropyl-N-methylbenzamide]"
< 100,100 to 1000,,"CC(C)N(C)C(=O)c1cc(F)ccc1-n1cc(C2CCN(C[C@H]3CC[C@H](NS(C)(=O)=O)CC3)CC2)c2ccncc21 [Example 21, 5-fluoro-N-isopropyl-N-methyl-2-(3-(1-((trans-4-(methylsulfonamido)cyclohexyl)methyl)piperidin-4-yl)-1H-pyrrolo[2,3-c]pyridin-1-yl)benzamide]"
< 100,≥ 1000,,"CC(C)N(C)C(=O)c1cc(F)ccc1-n1cc(C2CCN(Cc3ccc(NS(C)(=O)=O)cc3)CC2)c2ccncc21 [Example 23, 5-fluoro-N-isopropyl-N-methyl-2-(3-(1-(4-(methylsulfonamido)benzyl)piperidin-4-yl)-1H-pyrrolo[2,3-c]pyridin-1-yl)benzamide]"
< 100,100 to 1000,,"CC(C)N(C)C(=O)c1cc(F)ccc1-n1cc(C2CCN(CCc3ccc(S(C)(=O)=O)cc3)CC2)c2ccncc21 [Example 24, 5-fluoro-N-isopropyl-N-methyl-2-(3-(1-(4-(methylsulfonyl)phenethyl)piperidin-4-yl)-1H-pyrrolo[2,3-c]pyridin-1-yl)benzamide]"
< 100,100 to 1000,,"CNC(=O)c1cccc(CCN2CCC(c3cn(-c4ccc(F)cc4C(=O)N(C)C(C)C)c4cnccc34)CC2)c1 [Example 26, 5-fluoro-N-isopropyl-N-methyl-2-(3-(1-(3-(methylcarbamoyl)phenethyl)piperidin-4-yl)-1H-pyrrolo[2,3-c]pyridin-1-yl)benzamide]"
< 100,≥ 1000,,"CC(C)N(C)C(=O)c1cc(F)ccc1-n1cc(C2CCN(C[C@H]3CC[C@H](O)CC3)CC2)c2ccncc21 [Example 27, trans-(5-fluoro-2-(3-(1-((4-hydroxycyclohexyl)methyl)piperidin-4-yl)-1H-pyrrolo[2,3-c]pyridin-1-yl)-N-isopropyl-N-methylbenzamide)]"
< 100,≥ 1000,,"CC(C)N(C)C(=O)c1cc(F)ccc1-n1cc(C2CCN(C[C@H]3CC[C@@H](O)CC3)CC2)c2ccncc21 [Example 27A, cis-(5-fluoro-2-(3-(1-((4-hydroxycyclohexyl)methyl)piperidin-4-yl)-1H-pyrrolo[2,3-c]pyridin-1-yl)-N-isopropyl-N-methylbenzamide)]"
< 100,100 to 1000,,"CC(C)N(C)C(=O)c1cc(F)ccc1-n1cc(C2CCN(CCC3CCN(S(C)(=O)=O)CC3)CC2)c2ccncc21 [Example 28, 5-fluoro-N-isopropyl-N-methyl-2-(3-(1-(2-(1-(methylsulfonyl)piperidin-4-yl)ethyl)piperidin-4-yl)-1H-pyrrolo[2,3-c]pyridin-1-yl)benzamide]"
< 100,100 to 1000,,"CC(C)N(C)C(=O)c1cc(F)ccc1-n1cc(C2CCN(CCc3ccc(C(C)(C)C#N)cc3)CC2)c2ccncc21 [Example 29, 2-(3-(1-(4-(2-cyanopropan-2-yl)phenethyl)piperidin-4-yl)-1H-pyrrolo[2,3-c]pyridin-1-yl)-5-fluoro-N-isopropyl-N-methylbenzamide]"
< 100,100 to 1000,,"CC(c1ccccc1)N1CCC(c2cn(-c3ccc(F)cc3C(=O)N(C)C(C)C)c3cnccc23)CC1 (centres unmarked) [Example 30, 5-fluoro-N-isopropyl-N-methyl-2-(3-(1-(1-phenylethyl)piperidin-4-yl)-1H-pyrrolo[2,3-c]pyridin-1-yl)benzamide]"
< 100,< 100,,"CC(C)N(C)C(=O)c1cc(F)ccc1-n1cc(C2CCNC(Cc3ccccc3)C2)c2ccncc21 (centres unmarked) [Example 31, 2-(3-(2-benzylpiperidin-4-yl)-1H-pyrrolo[2,3-c]pyridin-1-yl)-5-fluoro-N-isopropyl-N-methylbenzamide]"
< 100,< 100,,"CCN(C(=O)c1cc(F)ccc1-n1cc(C2CCN(Cc3ccccc3)CC2)c2ccncc21)C(C)C [Example 32, 2-(3-(1-benzylpiperidin-4-yl)-1H-pyrrolo[2,3-c]pyridin-1-yl)-N-ethyl-5-fluoro-N-isopropylbenzamide]"
